Positions of bridges follow the written chain, without caps; N, C: chain ends. Residues, ends and D or L forms follow the SMILES beside them. No end group written: not given here.
Tests used:
[1] = system: nasal cavity, the affected site; assay: Effect on nose of cyclic peptides in which amino acid was substituted; conditions: nasal application once/day
Procedure: The obtained cyclic peptide was combined with purified water at 1, 5, 30, 100, 500 μg/ml and applied to the affected site. Formulations A to E in the tables refers to the cyclic peptide of 1, 5, 30, 100, 500 μg/ml, respectively.

[2] = system: affected site of psoriasis; assay: Effect of C-ring / CNP gel formulation on psoriasis; format: in vivo, human; conditions: psoriasis patient P6; after 3 days from the application
From the text: Followings are the summary of the therapeutic effects for psoriasis cases. As described above, the C-ring gel formulation was applied to the affected site of psoriasis, and changes in symptoms before and after the application were observed. When possible, as a comparative example, the CNP gel formulation described above was applied onto another affected site of the same subject where the C-ring gel formulation had not been applied, and changes in symptoms before and after the application were observed. Examination result is given in tables below with subjects' age, sex and symptoms, and prescription for the subjects.

[3] = system: normal subjects who have symptoms of lip roughness; assay: Lip mucosal condition after application of C-ring gel formulation; format: in vivo, human; conditions: lip roughness (cases I1-I5); 1 μM, 1 application
From the text: To normal subjects who have symptoms of lip roughness, the C-ring gel formulation was applied and changes in lip mucosal conditions were observed and summarized in the following table. Changes in the mucosal condition were judged based on based on cenesthesic evaluation by the subject and objective observation by the inventor as a physician.

Compound	irritation upon nasal application ([1]; Formulation C = 30 μg/ml)	other results
CC[C@H](C)[C@@H]1NC(=O)[C@H](CCCNC(=N)N)NC(=O)[C@H](CC(=O)O)NC(=O)[C@H](CC(C)C)NC(=O)[C@H](CCCCN)NC(=O)[C@H](CC(C)C)NC(=O)CNC(=O)[C@H](Cc2ccccc2)NC(=O)[C@@H](N)CSSC[C@@H](C(=O)O)NC(=O)CNC(=O)[C@H](CC(C)C)NC(=O)CNC(=O)[C@H]([C@@H](C)O)NC(=O)[C@H](CCSC)NC(=O)[C@H]([C@@H](C)O)NC(=O)CNC1=O [SEQ ID NO: 39] (H-CFGLKLDRIGTMTGLGC-OH; disulfide 1-17; N-terminus and C-terminus assumed)	upon blowing. There was no irritation upon nasal	–
CC[C@H](C)[C@@H]1NC(=O)CNC(=O)[C@H](CO)NC(=O)[C@H](CCSC)NC(=O)[C@H]([C@@H](C)O)NC(=O)CNC(=O)[C@H]([C@@H](C)CC)NC(=O)[C@H](CCCNC(=N)N)NC(=O)[C@H](CC(=O)O)NC(=O)[C@H](CC(C)C)NC(=O)[C@H](CCCCN)NC(=O)[C@H](CC(C)C)NC(=O)CNC(=O)[C@H](Cc2ccccc2)NC(=O)[C@@H](N)CSSC[C@@H](C(=O)O)NC(=O)CNC1=O [SEQ ID NO: 40] (H-CFGLKLDRIGTMSGIGC-OH; disulfide 1-17; N-terminus and C-terminus assumed)	There was no irritation upon nasal application.	–
CC[C@H](C)[C@@H]1NC(=O)CNC(=O)[C@H]([C@@H](C)O)NC(=O)[C@H](CCSC)NC(=O)[C@H](CO)NC(=O)CNC(=O)[C@H]([C@@H](C)CC)NC(=O)[C@H](CCCNC(=N)N)NC(=O)[C@H](CC(=O)O)NC(=O)[C@H](CCSC)NC(=O)[C@H](CCCCN)NC(=O)[C@H](CC(C)C)NC(=O)CNC(=O)[C@H](Cc2ccccc2)NC(=O)[C@@H](N)CSSC[C@@H](C(=O)O)NC(=O)CNC1=O [SEQ ID NO: 53] (H-CFGLKMDRIGSMTGIGC-OH; disulfide 1-17; N-terminus and C-terminus assumed)	upon blowing. There was no irritation upon nasal	–
CC[C@H](C)[C@@H]1NC(=O)[C@H](CCCNC(=N)N)NC(=O)[C@H](CC(=O)O)NC(=O)[C@H](CC(C)C)NC(=O)[C@H](CCCCN)NC(=O)[C@H](CC(C)C)NC(=O)[C@H](C)NC(=O)[C@H](Cc2ccccc2)NC(=O)[C@@H](N)CSSC[C@@H](C(=O)O)NC(=O)CNC(=O)[C@H](CC(C)C)NC(=O)CNC(=O)[C@H](CO)NC(=O)[C@H](CCSC)NC(=O)[C@H]([C@@H](C)O)NC(=O)CNC1=O [SEQ ID NO: 33] (H-CFALKLDRIGTMSGLGC-OH; disulfide 1-17; N-terminus and C-terminus assumed)	There was no irritation upon nasal application.	–
CC[C@H](C)[C@@H]1NC(=O)[C@H](CCCNC(=N)N)NC(=O)[C@H](CC(=O)O)NC(=O)[C@H](CC(C)C)NC(=O)[C@H](CCCCN)NC(=O)[C@H](CC(C)C)NC(=O)CNC(=O)[C@H](Cc2ccccc2)NC(=O)[C@@H](N)CSSC[C@@H](C(=O)O)NC(=O)CNC(=O)[C@H](CC(C)C)NC(=O)CNC(=O)[C@H](C)NC(=O)[C@H](CCSC)NC(=O)[C@H](CO)NC(=O)CNC1=O [SEQ ID NO: 16] (H-CFGLKLDRIGSMAGLGC-OH; disulfide 1-17; N-terminus and C-terminus assumed)	clear. There was no irritation upon nasal application.	–
CC[C@H](C)[C@@H]1NC(=O)[C@H](CCCNC(=N)N)NC(=O)[C@H](CC(=O)O)NC(=O)[C@H](CC(C)C)NC(=O)[C@H](CCCCN)NC(=O)[C@H](CC(C)C)NC(=O)CNC(=O)[C@H](Cc2ccccc2)NC(=O)[C@@H](N)CSSC[C@@H](C(=O)O)NC(=O)CNC(=O)[C@H](CC(C)C)NC(=O)CNC(=O)[C@H](CO)NC(=O)[C@H](CCSC)NC(=O)[C@H](C)NC(=O)CNC1=O [SEQ ID NO: 11] (H-CFGLKLDRIGAMSGLGC-OH; disulfide 1-17; N-terminus and C-terminus assumed)	There was no irritation upon nasal application.	–
CC[C@H](C)[C@@H]1NC(=O)CNC(=O)[C@H](CO)NC(=O)[C@H](CCSC)NC(=O)[C@H](CO)NC(=O)CNC(=O)[C@H]([C@@H](C)CC)NC(=O)[C@H](CCCNC(=N)N)NC(=O)[C@H](CC(=O)O)NC(=O)[C@H](CCSC)NC(=O)[C@H](CCCCN)NC(=O)[C@H](CC(C)C)NC(=O)[C@H](C)NC(=O)[C@H](Cc2ccccc2)NC(=O)[C@@H](N)CSSC[C@@H](C(=O)O)NC(=O)CNC1=O [SEQ ID NO: 50] (H-CFALKMDRIGSMSGIGC-OH; disulfide 1-17; N-terminus and C-terminus assumed)	stopped. There was no irritation upon nasal application.	–
CC[C@H](C)[C@@H]1NC(=O)CNC(=O)[C@H](CO)NC(=O)[C@H](CCSC)NC(=O)[C@H](CO)NC(=O)CNC(=O)[C@H]([C@@H](C)CC)NC(=O)[C@H](CCCNC(=N)N)NC(=O)[C@H](CC(=O)O)NC(=O)[C@H](CC(C)C)NC(=O)[C@H](CCCCN)NC(=O)[C@H](CC(C)C)NC(=O)CNC(=O)[C@H](Cc2ccccc2)NC(=O)[C@@H](N)CSSC[C@@H](C(=O)O)NC(=O)CNC1=O [SEQ ID NO: 19] (H-CFGLKLDRIGSMSGIGC-OH; disulfide 1-17; N-terminus and C-terminus assumed)	There was no irritation upon nasal application.	–
CC[C@H](C)[C@@H]1NC(=O)CNC(=O)[C@H]([C@@H](C)O)NC(=O)[C@H](CCSC)NC(=O)[C@H](CO)NC(=O)CNC(=O)[C@H]([C@@H](C)CC)NC(=O)[C@H](CCCNC(=N)N)NC(=O)[C@H](CC(=O)O)NC(=O)[C@H](CCSC)NC(=O)[C@H](CCCCN)NC(=O)[C@H](CC(C)C)NC(=O)[C@H](C)NC(=O)[C@H](Cc2ccccc2)NC(=O)[C@@H](N)CSSC[C@@H](C(=O)O)NC(=O)CNC1=O [SEQ ID NO: 59] (H-CFALKMDRIGSMTGIGC-OH; disulfide 1-17; N-terminus and C-terminus assumed)	–	irritation upon nasal application ([1]; Formulation D = 100 μg/ml): upon blowing. There was no irritation upon nasal
CC[C@H](C)[C@@H]1NC(=O)[C@H](CCCNC(=N)N)NC(=O)[C@H](CC(=O)O)NC(=O)[C@H](CC(C)C)NC(=O)[C@H](CCCCN)NC(=O)[C@H](CC(C)C)NC(=O)CNC(=O)[C@H](Cc2ccccc2)NC(=O)[C@@H](N)CSSC[C@@H](C(=O)O)NC(=O)CNC(=O)[C@H](CC(C)C)NC(=O)CNC(=O)[C@H](CO)NC(=O)[C@H](CCSC)NC(=O)[C@H]([C@@H](C)O)NC(=O)CNC1=O [SEQ ID NO: 10] (H-CFGLKLDRIGTMSGLGC-OH; disulfide 1-17; N-terminus and C-terminus assumed)	There was no irritation upon nasal application.	–
CC[C@H](C)[C@@H]1NC(=O)[C@H](CCCNC(=N)N)NC(=O)[C@H](CC(=O)O)NC(=O)[C@H](CC(C)C)NC(=O)[C@H](CCCCN)NC(=O)[C@H](CC(C)C)NC(=O)CNC(=O)[C@H](Cc2ccccc2)NC(=O)[C@@H](N)CSSC[C@@H](C(=O)O)NC(=O)CNC(=O)[C@H](C(C)C)NC(=O)CNC(=O)[C@H](CO)NC(=O)[C@H](CCSC)NC(=O)[C@H](CO)NC(=O)CNC1=O [SEQ ID NO: 18] (H-CFGLKLDRIGSMSGVGC-OH; disulfide 1-17; N-terminus and C-terminus assumed)	There was no irritation upon nasal application.	–
Gly-Leu-Ser-Lys-Gly-Cys-Phe-Gly-Leu-Lys-Leu-Asp-Arg-Ile-Gly-Ser-Met-Ser-Gly-Leu-Gly-Cys (GLSKGCFGLKLDRIGSMSGLGC; disulfide 6-22; listed as Homo sapiens) [CNP, human wild-type C-type natriuretic peptide (American Peptide Company)]	–	Results of two-sided application on lower thighs (FIG. 1) [2]: scales became inconspicuous but still remains, and erythema and infiltration were improved only a little; Post-application Symptoms [3]: remained on corner of mouth.
CC[C@H](C)[C@@H]1NC(=O)[C@H](CCCNC(=N)N)NC(=O)[C@H](CC(=O)O)NC(=O)[C@H](CC(C)C)NC(=O)[C@H](CCCCN)NC(=O)[C@H](CC(C)C)NC(=O)[C@H](C)NC(=O)[C@H](Cc2ccccc2)NC(=O)[C@@H](N)CSSC[C@@H](C(=O)O)NC(=O)CNC(=O)[C@H](CC(C)C)NC(=O)CNC(=O)[C@H]([C@@H](C)O)NC(=O)[C@H](CCSC)NC(=O)[C@H](CO)NC(=O)CNC1=O [SEQ ID NO: 34] (H-CFALKLDRIGSMTGLGC-OH; disulfide 1-17; N-terminus and C-terminus assumed)	–	irritation upon nasal application ([1]; Formulation B = 5 μg/ml): There was no irritation upon nasal application.
CC[C@H](C)[C@@H]1NC(=O)CNC(=O)[C@H](CO)NC(=O)[C@H](CCSC)NC(=O)[C@H]([C@@H](C)O)NC(=O)CNC(=O)[C@H]([C@@H](C)CC)NC(=O)[C@H](CCCNC(=N)N)NC(=O)[C@H](CC(=O)O)NC(=O)[C@H](CCSC)NC(=O)[C@H](CCCCN)NC(=O)[C@H](CC(C)C)NC(=O)[C@H](C)NC(=O)[C@H](Cc2ccccc2)NC(=O)[C@@H](N)CSSC[C@@H](C(=O)O)NC(=O)CNC1=O [SEQ ID NO: 58] (H-CFALKMDRIGTMSGIGC-OH; disulfide 1-17; N-terminus and C-terminus assumed)	–	irritation upon nasal application ([1]; Formulation B = 5 μg/ml): There was no irritation upon nasal application.
